Results taken from article PMC5656322, “BAK1 is involved in AtRALF1-induced inhibition of root cell expansion” (PLoS Genetics, 2017).
Where no end group is shown, it is not given here.

How the values were obtained:
FLS2 (FLS2-ECD) = assay: Yeast two-hybrid with FLS2-ECD; format: binding, Arabidopsis thaliana; conditions: yeast AH109, medium lacking Leu, Trp, His
Source text: Fig 6 AtRALF1 interacts physically with BAK1 protein. (A) The active AtRALF1 peptide interacts with the extracellular domain (ECD) of BAK1 (BAK1-ECD) in yeast. The AtRALF1 protein fused to the GAL4 DNA-binding domain (AtRALF1-pGBKT7) was used as bait to test its interaction with the extracellular domain of the proteins fused to the GAL4 activation domain (pGADT7): BAK1 (BAK1-ECD), BAK7 (BAK7-ECD), BRI1 (BRI1-ECD) and FLS2 (FLS2-ECD). (B) Blueprint showing the truncated proteins from the extracellular domain of BAK1 tested in the two-hybrid assay. The extracellular domain of BAK1 comprises leucine zippers (LZ), 5 leucine rich-regions (LRRs) and a proline-rich region (pro-rich). (C) AtRALF1-pGBKT7 was used as bait to test its interaction with truncated proteins fused to the GAL4 activation domain (pGADT7). […] HA-BAK1-ECD was detected with an anti-HA antibody. AtRALF1 was detected with an anti-RALF antibody. […] BAK1-GFP was detected with an anti-GFP antibody. […]
The coding regions of the mature peptides AtRALF1 and AtRALF34 were amplified from Arabidopsis genomic DNA and fused to the GAL4 DNA-binding domain and the MYC epitope tag using the NdeI/BamHI sites in the pGBKT7 (Clontech) vector. […] The proteins fused to the HA and MYC epitope tags were detected by protein blotting. […]

BAK1 = BAK1 phosphorylation assay, anti-phosphothreonine; format: in vivo, Arabidopsis thaliana; conditions: 20 min
Method: Transgenic plants pBAK1:BAK1-6xHA were grown in vertical plates for 10–15 days. The plants were treated with 0.1 μM BL, 2 μM RALF1(9–49), 1 μM, 2 μM or 10 μM AtRALF1 for 20 min. The roots were isolated, and the microsomal fractions were obtained as described above. The microsomal fractions were incubated with anti-HA beads (EZview Red Anti-HA Affinity Gel, Sigma) for 2 h at 4 °C to immunoprecipitate the BAK1 protein. The unbound materials were removed by washing 3 times. Proteins were separated by SDS/PAGE and further analyzed by protein blotting using anti-HA (Thermo Scientific), or anti-phosphothreonine (Novus Biologicals), or anti-phosphoserine (Novus Biologicals) antibodies.

Substance: AtRALF1: root-specific RALF isoform in Arabidopsis; recombinant peptide hormone produced in E. coli (ATTKYISYQSLKRNSVPCSRRGASYYNCQNGAQANPYSRGCSKIARCRS; ends and bridges not checked; cysteine pairing not given here)
- interaction with FLS2-ECD (Y2H complementation) (FLS2 (FLS2-ECD)): able to complement only the BAK1-ECD construct
- further increase of BAK1 Thr phosphorylation (BAK1; 10 μM): did not result in further increases in phosphorylation
- upper concentration of dose-dependent BAK1 Thr phosphorylation (BAK1; pBAK1:BAK1-HA roots): up to 2 μM
- BAK1 phosphorylation in threonine residues (BAK1; pBAK1:BAK1-HA roots, AtRALF1 1, 2, 10 μM, BL 0.1 μM): increase in BAK1 phosphorylation in the threonine residues similar to the increase resulting from the treatment of the seedlings with BL
